Biological target: eIF-2-alpha kinase GCN2 (Homo sapiens, UniProt Q9P2K8)
Experiment: Biochemical Assay
Experimental: 384-well (Greiner #784075) (or 1536-well [Greiner #782075]) plates containing 60 nl (or 20 nl for 1536-well) of compound in 100% DMSO (10 concentrations serially diluted 3.16-fold) were prepared. Two copies of plates were used one for the GCN2 assay and a second for an artifact plate. Working reagents were prepared as follows reaction buffer: Tris pH 7.5 20 mM, MgCl2 5 mM, DTT 1 mM, Brij-35 0.005%, EGTA 0.5 mM in water; 2 enzyme solution: GCN2 (produced in-house) 1.6 nM in reaction buffer; 2 substrate solution: GFP-eIFS1 (Thermo Fisher Scientific, PV4809) 50 nM, ATP 0.2 mM, tRNA 0.4 mg/ml in reaction buffer; p-GFP-eIF2S1 (artifact) solution: p-GFP-eIFS1 (produced by incubation of 100 nM GFP-eIF2S1 in reaction buffer with 100 uM ATP and 1 nM PERK KD enzyme for 3 hr at room temperature) 2 nM in reaction buffer; 3 stop/antibody solution: p-GFP-EIF2S1 Th-Ab (Thermo Fisher Scientific, PV4816) 6 nM, AZ13933939 3 uM, BSA 3% in reaction buffer. Reagents were loaded onto a liquid dispenser (Certus FLEX, Trajan Scientific and Medical), and 3 ul (1 ul for 1536-well) of 2 enzyme solution, followed by 3 ul (1 ul for 1536-well) of 2 substrate solution was added to the plates. When small numbers of plates were processed, the enzyme solution was added first to all plates, then the valve used for the substrate solution was primed immediately prior to use. […]

eIF-2-alpha kinase GCN2, sequence (Q9P2K8 whole entry): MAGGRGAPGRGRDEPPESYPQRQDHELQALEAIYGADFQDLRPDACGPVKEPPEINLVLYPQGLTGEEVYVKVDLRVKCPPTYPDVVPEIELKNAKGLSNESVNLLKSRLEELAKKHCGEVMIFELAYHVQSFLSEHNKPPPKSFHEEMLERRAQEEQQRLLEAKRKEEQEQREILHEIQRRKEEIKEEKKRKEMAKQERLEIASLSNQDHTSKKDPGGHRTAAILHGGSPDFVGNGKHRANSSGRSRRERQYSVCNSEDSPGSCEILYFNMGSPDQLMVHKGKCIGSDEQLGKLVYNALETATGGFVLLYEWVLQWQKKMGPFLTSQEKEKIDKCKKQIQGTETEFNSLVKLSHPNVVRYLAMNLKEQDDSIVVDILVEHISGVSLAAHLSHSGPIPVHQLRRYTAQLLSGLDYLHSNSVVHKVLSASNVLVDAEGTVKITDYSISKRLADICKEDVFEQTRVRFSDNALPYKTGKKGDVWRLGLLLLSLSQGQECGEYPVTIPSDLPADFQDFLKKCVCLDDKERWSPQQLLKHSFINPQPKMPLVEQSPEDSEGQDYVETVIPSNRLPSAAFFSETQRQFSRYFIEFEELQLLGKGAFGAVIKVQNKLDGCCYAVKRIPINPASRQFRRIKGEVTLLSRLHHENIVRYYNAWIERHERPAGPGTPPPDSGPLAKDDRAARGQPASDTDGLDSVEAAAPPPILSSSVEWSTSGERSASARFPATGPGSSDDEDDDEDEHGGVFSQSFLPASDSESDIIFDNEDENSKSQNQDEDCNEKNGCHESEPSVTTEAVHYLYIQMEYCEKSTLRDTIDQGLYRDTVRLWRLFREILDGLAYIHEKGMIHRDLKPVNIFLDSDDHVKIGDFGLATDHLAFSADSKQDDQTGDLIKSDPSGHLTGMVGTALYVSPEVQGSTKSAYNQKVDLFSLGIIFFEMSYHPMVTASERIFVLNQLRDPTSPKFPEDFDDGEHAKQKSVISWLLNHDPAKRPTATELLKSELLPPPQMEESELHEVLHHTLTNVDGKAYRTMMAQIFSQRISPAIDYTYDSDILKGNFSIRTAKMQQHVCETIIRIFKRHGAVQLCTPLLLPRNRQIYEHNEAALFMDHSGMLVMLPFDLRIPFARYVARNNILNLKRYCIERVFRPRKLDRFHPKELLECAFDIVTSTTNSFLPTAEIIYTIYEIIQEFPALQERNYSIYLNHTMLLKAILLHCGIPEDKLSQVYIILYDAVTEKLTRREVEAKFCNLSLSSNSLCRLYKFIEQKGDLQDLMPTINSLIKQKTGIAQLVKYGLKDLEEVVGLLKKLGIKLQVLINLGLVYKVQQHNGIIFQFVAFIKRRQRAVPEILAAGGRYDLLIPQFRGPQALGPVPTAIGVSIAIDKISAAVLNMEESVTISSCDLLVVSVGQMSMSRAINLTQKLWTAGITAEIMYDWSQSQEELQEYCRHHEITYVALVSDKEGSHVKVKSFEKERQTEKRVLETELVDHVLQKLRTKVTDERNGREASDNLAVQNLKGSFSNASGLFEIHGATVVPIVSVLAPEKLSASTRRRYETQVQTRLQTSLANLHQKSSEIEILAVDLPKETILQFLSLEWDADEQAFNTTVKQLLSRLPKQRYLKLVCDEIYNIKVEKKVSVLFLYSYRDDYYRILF

| SMILES | IC50 |
| --- | --- |
| Cc1cc(Nc2ncc(Cl)c(-c3c[nH]c4c(NC(=O)CN5CC[C@H](Oc6ccnc(NC7CC7)n6)C5)cccc34)n2)nn1C [US20240025884, Example 10] | < 10 nM |
| Cc1cnc(Nc2cc(C)n(C)n2)nc1-c1c[nH]c2c(N3Cc4c(/C=C/C(=O)NC(C)C)cccc4C3=O)cccc12 [US20240025884, Example 370] | < 10 nM |

From BindingDB's records for patent US20240025884 (Dong-A St Co., 2024)
